Laboratory results reported in US20250140486A1, “FUSED AROMATIC MOLECULES AS ELECTRODE MATERIALS” (Massachusetts Institute of Technology, priority 2021, published 2025).

Experiment: Solubility of the solids in organic and aqueous media / common solvents
Format: physicochemical

For `Nc1c(N)c(=O)c2[nH]c3c(=O)c(N)c(N)c(=O)c3[nH]c2c1=O` [BTABQ, tetraamino-dihydrophenazine-1,4,6,9-tetrone], the “solubility (form insoluble solids)” value (in both organic and aqueous media) was “insoluble”, the solubility (in common NMR solvents) was “insoluble” and the solubility (in common organic solvents) was “highly insoluble”.
